Assay results reported in publication PMC6480602, “Design, Synthesis, and Evaluation of Monoamine Oxidase A Inhibitors–Indocyanine Dyes Conjugates as Targeted Antitumor Agents” (Molecules, 2019).
Entries after “also recorded” stand apart in the source; their conditions may differ. Counter-ions that a name gives are not always drawn. Like-named read-outs stand apart in the source and are kept apart here.

Assays:
PC-3 cells = experiment: MTT cytotoxicity assay against PC-3 cells; assay type: cell-based, human; details: for IC50: 96 h exposure, read-out: IC50 (μM), anti-proliferative activity against PC-3 cells
Procedure: The antitumor activities of G1–G13 were evaluated by MTT (3-(4,5-dimethylthiazol-2-yl)-2,5-diphenyltetrazolium bromide) assay using a human PC-3 cell line.
The in vitro cytotoxicity activity of G1–G13 were measured by the colorimetric MTT assay. Briefly, PC-3 cells were incubated in 96-well plates at a density of 3 × 10^3 cells/well for 24 h. Then, the cells were exposed to various concentrations of tested compounds, INH and DOX, respectively for 96 h. After incubation, 10 μL of MTT (5 mg/mL) solution was added and the plates were incubated for 4 h at 37 °C. Next, the medium was replaced with 200 μL of DMSO to dissolve the formed formazan crystals. The absorbance was measured at 570 nm on a microplate reader (Synergy-HT, BioTek Instruments, Winooski, VT, USA).

[1] = target: T1, Monoamine oxidase A (MAOA) (Homo sapiens, UniProt P21397); experiment: MAOA inhibition activity assay in LNCaP cells (Cell MAOA Assay Kit); assay type: cell-based
T1 construct: the prostate cancer cell line LNCaP expressed a relatively high level of MAOA; endogenous in cells; host or cells: LNCaP cells (Cell Bank of the Chinese Academy of Sciences, Shanghai)
T1 sequence (P21397 1-527): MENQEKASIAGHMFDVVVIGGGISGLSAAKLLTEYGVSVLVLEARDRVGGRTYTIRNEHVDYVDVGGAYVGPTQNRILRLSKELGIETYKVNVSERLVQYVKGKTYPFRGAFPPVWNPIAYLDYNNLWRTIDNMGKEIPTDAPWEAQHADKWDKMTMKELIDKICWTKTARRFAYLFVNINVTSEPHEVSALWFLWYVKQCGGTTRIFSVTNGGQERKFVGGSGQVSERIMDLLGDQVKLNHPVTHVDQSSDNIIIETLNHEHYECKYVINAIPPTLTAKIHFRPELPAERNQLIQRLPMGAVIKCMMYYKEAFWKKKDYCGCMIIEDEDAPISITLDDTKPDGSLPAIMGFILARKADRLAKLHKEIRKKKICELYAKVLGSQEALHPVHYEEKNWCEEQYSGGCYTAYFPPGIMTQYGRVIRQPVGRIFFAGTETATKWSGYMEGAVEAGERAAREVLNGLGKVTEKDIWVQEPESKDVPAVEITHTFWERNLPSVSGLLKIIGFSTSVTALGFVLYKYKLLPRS
Procedure: Because the prostate cancer cell line LNCaP expressed a relatively high level of MAOA [17, 40], we tested the inhibitory effect of compounds G10, G11, and G12 on MAOA using LNCaP cells (Table 2).
In a 10-mm dish, 6 × 10^5 LNCaP cells were plated in medium supplemented with 10% FBS. […] The reaction products were extracted and MAOA activities were measured as described in the introduction for the Cell MAOA Assay Kit (Shanghai Chengong Biotechnology, CHN, Lot No: 1-201838-10). The MAOA activity was assessed based on the substrate p-tyramine level after treatment with MAOB inhibitor pargyline.

[2] = LNCaP cells, 48 h treatment, substrate p-tyramine, with MAOB inhibitor pargyline, read-out: IC50 (nM), MAOA inhibitory activity in LNCaP cells

Row | Compound | IC50 (PC-3 cells; Homo sapiens) | other results
1 | COc1ccc2c(c1)C(C)(C)C(/C=C/C=C/C=C/C=C1/N(CCCCS(=O)(=O)[O-])c3ccc(OC)cc3C1(C)C)=[N+]2CCCCCC(=O)NNC(=O)c1ccncc1 [Compound G8, 3H-Indolium,2-(7-(5-methoxy-1-(4-sulfonatobutyl)-3,3-dimethyl-2H-indolin-2-ylidene)-1,3,5-heptatrien-1-yl)-5-methoxy-1-(6-(2-isonicotinoylhydrazinyl)-6-oxohexyl)-1,3-dihydro-3,3-dimethyl-, inner salt] | 102 µM | –
2 | CC1(C)C(=CC=C2CCCC(C=CC3=[N+](CCCCCC(=O)NNC(=O)c4ccncc4)c4ccc(Br)cc4C3(C)C)=C2Cl)N(CCCCCC(=O)O)c2ccc(Br)cc21 [Compound G2, 2-(2-(3-(2-(5-Bromo-1-(5-carboxypentyl)-3,3-dimethyl-indol-2-ylidene)ethylidene)-2-chloro-1-cyclohexen-1-yl)vinyl)-5-bromo-1-(6-(2-isonicotinoylhydrazinyl)-6-oxohexyl)-3,3-dimethyl-3H-indol-1-ium bromide] | 75 µM | –
3 | CCCCN1/C(=C/C=C/C=C/C=C/C2=[N+](CCCCCC(=O)NNC(=O)c3ccncc3)c3ccc(C)cc3C2(C)C)C(C)(C)c2cc(OC)ccc21 [Compound G11] | 0.4 µM | MAOA inhibitory activity (in words) ([1]; LNCaP cells): moderate MAOA inhibitory activities; IC50 [1, 2]: 469 nM
4 | Cc1ccc2c(c1)C(C)(C)C(=CC=CC=CC=CC1=[N+](CCCCCC(=O)NNC(=O)c3ccncc3)c3ccc(C)cc3C1(C)C)N2CCCCCC(=O)O [Compound G4, 2-(7-(1-(5-carboxypentyl)-1,3-dihydro-3,3,5-trimethyl-2H-indol-2-ylidene)-1,3,5-heptatrien-1-yl)-1-(6-(2-isonicotinoylhydrazinyl)-6-oxohexyl)-3,3,5-trimethyl-3H-indol-1-ium bromide] | 46.7 µM | –
5 | COc1cccc2c1C(=O)c1c(O)c3c(c(O)c1C2=O)C[C@@](O)(C(=O)CO)C[C@@H]3O[C@H]1C[C@H](N)[C@H](O)[C@H](C)O1 [DOX, doxorubicin, reference compound] | 0.21 µM | –
6 | COc1ccc2c(c1)C(C)(C)C(=CC=C1CCCC(C=CC3=[N+](CCCCCC(=O)NNC(=O)c4ccncc4)c4ccc(OC)cc4C3(C)C)=C1Cl)N2CCCCCC(=O)O [Compound G1, 2-(2-(3-(2-(5-Methoxyl-1-(5-carboxypentyl)-3,3-dimethyl-indol-2-ylidene)ethylidene)-2-chloro-1-cyclohexen-1-yl)vinyl)-5-methoxyl-1-(6-(2-isonicotinoylhydrazinyl)-6-oxohexyl)-3,3-dimethyl-3H-indol-1-ium bromide] | 18.4 µM | –
7 | CCCCN1/C(=C/C=C/C=C/C=C/C2=[N+](CCCCCC(=O)NNC(=O)c3ccncc3)c3ccc(Br)cc3C2(C)C)C(C)(C)c2cc(OC)ccc21 [Compound G12] | 1.55 µM | MAOA inhibitory activity (in words) ([1]; LNCaP cells): moderate MAOA inhibitory activities; IC50 [1, 2]: 661 nM
8 | CCCCN1/C(=C/C=C/C=C/C=C/C2=[N+](CCCC(=O)NNC(=O)c3ccncc3)c3ccc(C)cc3C2(C)C)C(C)(C)c2cc(OC)ccc21 [Compound G10, 2-(7-(5-Methoxy-1-butyl-3,3,5-trimethyl-2H-indolin-2-ylidene)-1,3,5-heptatrien-1-yl)-1-(6-(2-isonicotinoylhydrazinyl)-4-oxobutyl)-1,3-dihydro-3,3-dimethyl-3H-indolium bromide] | 0.85 µM | MAOA inhibitory activity (in words) ([1]; LNCaP cells): moderate MAOA inhibitory activities; IC50 [1, 2]: 221 nM
9 | COc1ccc2c(c1)C(C)(C)\C(=C/C=C/C=C/C=C/C1=[N+](CCCCCC(=O)NNC(=O)c3ccncc3)c3ccccc3C1(C)C)N2CCCCS(=O)(=O)[O-] [Compound G9, 3H-Indolium,2-(7-(5-methoxy-1-(4-sulfonatobutyl)-3,3-dimethyl-2H-indolin-2-ylidene)-1,3,5-heptatrien-1-yl)-1-(6-(2-isonicotinoylhydrazinyl)-6-oxohexyl)-1,3-dihydro-3,3-dimethyl-, inner salt] | 90.5 µM | –
10 | COc1ccc2c(c1)C(C)(C)\C(=C/C=C/C=C/C=C/C1=[N+](CCCCCC(=O)NNC(=O)c3ccncc3)c3ccc(C)cc3C1(C)C)N2CCCCS(=O)(=O)[O-] [Compound G7, 3H-Indolium,2-(7-(5-methoxy-1-(4-sulfonatobutyl)-3,3-dimethyl-2H-indolin-2-ylidene)-1,3,5-heptatrien-1-yl)-1-(6-(2-isonicotinoylhydrazinyl)-6-oxohexyl)-1,3-dihydro-3,3,5-trimethyl-, inner salt] | 28.6 µM | –
11 | 2-(7-(5-methoxyl-1-(5-carboxypentyl)-1,3-dihydro-5-ethyl-3-methyl-2H-indol-2-ylidene)-1,3,5-heptatrien-1-yl)-5-methoxyl-1-(6-(2-isonicotinoylhydrazinyl)-6-oxohexyl)-5-ethyl-3-methyl-3H-indol-1-ium bromide [Compound G6] | – | IC50 (PC-3 cells): 37.1 µM
12 | CCC1(C)C(/C=C/C2=C(Cl)C(=C/C=C3/N(CCCCCC(=O)O)c4ccc(OC)cc4C3(C)CC)/CCC2)=[N+](CCCCCC(=O)NNC(=O)c2ccncc2)c2ccc(OC)cc21 (centres unmarked) [Compound G3, 2-(2-(3-(2-(5-Methoxyl-1-(5-carboxypentyl)-5-ethyl-3-methyl-indol-2-ylidene)ethylidene)-2-chloro-1-cyclohexen-1-yl)vinyl)-5-methoxyl-1-(6-(2-isonicotinoylhydrazinyl)-6-oxohexyl)-5-ethyl-3-methyl-3H-indol-1-ium bromide] | 13.3 µM | –
13 | NNC(=O)c1ccncc1 [INH, isoniazid, reference compound] | > 200 µM | cytotoxicity / antitumor activity against PC-3 cells (in words) (PC-3 cells): negligible cytotoxicity; also recorded: negligible in vitro antitumor activity; IC50 [1]: > 1000 nM
14 | COc1ccc2c(c1)C(C)(C)C(=CC=CC=CC=CC1=[N+](CCCCCC(=O)NNC(=O)c3ccncc3)c3ccc(OC)cc3C1(C)C)N2CCCCCC(=O)O [Compound G5, 2-(7-(5-methoxyl-1-(5-carboxypentyl)-1,3-dihydro-3,3-dimethyl-2H-indol-2-ylidene)-1,3,5-heptatrien-1-yl)-5-methoxyl-1-(6-(2-isonicotinoylhydrazinyl)-6-oxohexyl)-3,3-dimethyl-3H-indol-1-ium bromide] | 5.06 µM | –
15 | CC1(C)C(/C=C/C=C/C=C/C=C2/N(CCCCCC(=O)NNC(=O)c3ccncc3)c3ccc4ccccc4c3C2(C)C)=[N+](CCCCS(=O)(=O)[O-])c2ccc3ccccc3c21 [Compound G13, 1H-Benz[e]indolium,2-(7-(3,3-dimethyl-1-(4-sulfonatobutyl)benz(e)indolin-2-ylidene)hepta-1,3,5-trien-1-yl)-1-(6-(2-isonicotinoylhydrazinyl)-6-oxohexyl)-1,3-dihydro-3,3-dimethyl-, inner salt] | 10.5 µM | –
